We go through eight compounds from ChEMBL document CHEMBL2375345, “New antiprotozoal agents: their synthesis and biological evaluations” (Bioorg Med Chem Lett, 2013).

Data set [1] is described as follows: Selectivity index, ratio of CC50 for human MRC5 cells to IC50 for amastigote form of Leishmania infantum MHOM/MA(BE)/67. Format: functional.
Data set [2] is described as follows: Selectivity index, ratio of CC50 for human MRC5 cells to IC50 for trypomastigote form of Trypanosoma brucei rhodesiense STIB900. Format: functional.
A short description of data set [3]: Selectivity index, ratio of CC50 for human MRC5 cells to IC50 for trypomastigote form of Trypanosoma brucei brucei 427. Format: functional.
The nature of data set [4]: Selectivity index, ratio of CC50 for human MRC5 cells to IC50 for epimastigote form of Trypanosoma cruzi Tulahuen 2. Format: functional.
Data set [5] is described as follows: Lipophilicity, log P of the compound. Format: physicochemical. As to conditions: octanol/water.
Data set [6] is described as follows: Cytotoxicity against human MRC5 cells assessed as cell viability after 7 days by Alamar blue assay. Format: cell-based.
For a further data set, the system named is Leishmania infantum. The data set can be described thus: Antiprotozoal activity against amastigote form of Leishmania infantum MHOM/MA(BE)/67 infected in mouse peritoneal macrophages assessed as reduction of intracellular parasite burden after 5 days by Giemsa staining method. Format: functional, organism-based. As to conditions: MHOM/MA(BE)/67, 120 h.

A further data set concerns Trypanosoma cruzi. Put plainly: Antiprotozoal activity against epimastigote form of Trypanosoma cruzi Tulahuen 2 assessed as parasite growth inhibition measured at day 5. Type of data set: functional, organism-based. As to conditions: Tulahuen 2, 120 h.
For data set [7], the system named is Trypanosoma brucei brucei. The data set can be described thus: Antiprotozoal activity against trypomastigote form of Trypanosoma brucei brucei 427 assessed as parasite growth inhibition. Format: functional, organism-based.
Data set [8] deals with Trypanosoma brucei rhodesiense. Put plainly: Antiprotozoal activity against trypomastigote form of Trypanosoma brucei rhodesiense STIB900 assessed as parasite growth inhibition after 72 hrs by Alamar blue assay. Format: functional, organism-based. As to conditions: STIB900, 72 h.

As for `CC1(O)c2ccccc2-c2c1c(-n1ccnc1)nc1ccc(Br)cc21` (stereo not given), the “Ratio CC50/IC50” value in data set [1] is on record as 0.9; in data set [2] it was 1.93; in [3] it was 0.61; in data set [4] it was 8.23. In data set [5], this compound had a log partition coefficient (logP) of 3.86. Besides, in data set [6], the half-maximal cytotoxic concentration (CC50) at 168 h came out at 11.5 µM. Further, the IC50 in the data set with Leishmania infantum is 12.7 µM; in the data set on Trypanosoma cruzi, 1.39 µM; in [7], 18.8 µM; in [8], 5.93 µM.
`CC(=O)OC1(C)c2ccccc2-c2c1c(-n1ccnc1)nc1ccc(Br)cc21` (stereo not given): the “Ratio CC50/IC50” value came to 1.52 in data set [1], 4.53 in [2], 1.11 in [3] and 34.65 in [4]. This compound also came in with a logP in data set [5] of 4.09. In [6], the CC50 at 168 h stood at 32.2 µM. Besides, the 50% inhibitory concentration (IC50) in the data set with Leishmania infantum was found to be 21.1 µM; in the data set with Trypanosoma cruzi it was 0.93 µM; in [7], 29 µM; in data set [8], 7.11 µM.
As to `CCCCC(=O)OC1(C)c2ccccc2-c2c1c(-n1ccnc1)nc1ccc(Br)cc21` (stereo not given), the “Ratio CC50/IC50” value in data set [1] worked out at 3.84; in [2], 3.74; in data set [3], 2.68; in data set [4] it was 14.91. Further, in [5], the logP came out at 5.58. The cytotoxic concentration (CC50) at 168 h in [6] is 21.8 µM. Besides, the IC50 with Leishmania infantum came to 5.66 µM; in the data set with Trypanosoma cruzi it was 1.46 µM; in [7], 8.11 µM; in data set [8] it was 5.81 µM.
Take `CC1(O)c2ccccc2-c2c1c(OCC(F)(F)F)nc1ccc(Br)cc21` (stereo not given): the “Ratio CC50/IC50” value in data set [1] came out at 2.48; in data set [2], 6.14; in [3], 2.41; in [4], 2.86. The logP in [5] turned out to be 5.71. Moreover, the half-maximal cytotoxic concentration (CC50) at 168 h in data set [6] turned out to be 19.8 µM. For the same compound, the half-maximal inhibitory concentration (IC50) in the data set on Leishmania infantum is 8 µM; in the data set on Trypanosoma cruzi it was 6.92 µM; in [7] it was 8.23 µM; in data set [8], 3.23 µM.
As for `CC1(OCC2CO2)c2ccccc2-c2c1c(C(F)(F)F)nc1ccc(Br)cc21` (stereo not given), the “Ratio CC50/IC50” value was determined as 0.14 in data set [1], 0.73 in [2], 0.47 in data set [3] and 0.48 in data set [4]. This compound yielded a logP in data set [5] of 5.23. The CC50 at 168 h in data set [6] is 4 µM. Further, the IC50 worked out at 27.3 µM in the data set on Leishmania infantum, 8.37 µM in the data set with Trypanosoma cruzi, 8.57 µM in data set [7] and 5.49 µM in data set [8].
As to `COc1nc2ccc(Br)cc2c2c1C(C)(OCC(O)Cn1ccnc1)c1ccccc1-2` (stereo not given), the “Ratio CC50/IC50” value was determined as 1.33 in data set [1], 6.83 in data set [2], 3.94 in data set [3] and 3.7 in data set [4]. In addition, the log partition coefficient (logP) in [5] is 3.68. Moreover, the CC50 at 168 h in [6] was determined as 8 µM. The IC50 in the data set on Leishmania infantum came to 6.01 µM; with Trypanosoma cruzi it was 2.16 µM; in [7], 2.03 µM; in [8] it was 1.17 µM.
`COc1nc2ccc(Br)cc2c2c1C(C)(OCC(O)Cn1ccc(-c3cccc(C(F)(F)F)c3)n1)c1ccccc1-2` (stereo not given): the “Ratio CC50/IC50” value in data set [1] is recorded as 4.74; in [2] it was 19.29; in data set [3], 10.43; in data set [4] it was 4.5. Moreover, the logP in data set [5] was 7.5. Further, the 50% cytotoxic concentration (CC50) at 168 h in [6] stood at 24.1 µM. For the same compound, the IC50 is 5.08 µM in the data set with Leishmania infantum, 5.35 µM in the data set with Trypanosoma cruzi, 2.31 µM in [7] and 1.25 µM in data set [8].
As for `COc1nc2ccc(Br)cc2c2c1C(C)(OC(=O)N(C)C)c1ccccc1-2` (stereo not given), the “Ratio CC50/IC50” value in [1] is recorded as 1; in data set [2] it was 12.12; in [3], 7.77; in data set [4], 8.62. Also, the logP in data set [5] turned out to be 4.91. For the same compound, the 50% cytotoxic concentration (CC50) at 168 h in [6] is 64 µM. In addition, the IC50 was determined as 64 µM with Leishmania infantum, 7.42 µM in the data set on Trypanosoma cruzi, 8.23 µM in [7] and 5.28 µM in [8].
